Measured values reported in paper PMC5618334, “Hydrocarbon constrained peptides – understanding preorganisation and binding affinity” (Chemical Science, 2016).
Where a SMILES comes first, the peptide text is derived from it. [ ]: non-standard residue; d: D form. Nle = CCCC[C@H](N)C(=O)O

Columns and labels:
Format in all cases: binding
Bcl-xL/BODIPY-BAK = target: T1, Bcl-xL/BODIPY-BAK (Homo sapiens, UniProt Q07817, DEL26-81); experiment: Fluorescence anisotropy competition assay, inhibition of Bcl-xL/BODIPY-BAK interaction
T1 construct: pET28a His-SUMO Bcl-xL (1-198, missing 26-81); His-SUMO (N, cleaved yes); made in house; host or cells: E. coli Rosetta 2
Method: (§1) To profile the binding behaviour of the constrained peptides we tested them in both competition displacement assays and direct binding assays. […] Of particular interest was the potential for the introduction of a constraint to have differential effects on protein specificity/selectivity. […] We next tested the constrained peptides in inhibition assays (Fig. 3a and b and Table 2). […]
(§2) constructs were over-expressed in the E. coli strain Rosetta 2. Cells were resuspended in 50mM TRIS pH 8.0, 500mM NaCl, 15mM Imidazole and lysed by sonication. The clarified lysate was applied to a 5ml HisTrap column equilibrated with 50mM TRIS pH 8.0, 500mM NaCl, 15mM Imidazole. The HisTrap was then washed with 10 CV of 50mM TRIS pH 8.0, 500mM NaCl, 15mM Imidazole followed by 10 CV 50mM TRIS pH 8.0, 500mM NaCl, 25mM Imidazole. The fusion proteins were eluted in 50mM TRIS pH 8.0, 500mM NaCl, 300mM Imidazole. TheHis-SUMO tag was removed in overnight in dialysis into 50mM TRIS pH 8.0, 250mM NaCl in the presence of Smt3 protease, Ulp1, overnight at 4°C. Uncleaved material and His-SUMO were removed by reapplication of the sample to a HisTrap in 50mM TRIS pH 8.0, 250mM NaCl and the flow through containing Mcl- […]
(§3) The proteins were then filtered before further purification on a Superdex 75 (GE […]
(§4) proteins were concentrated and stored at -80°C.
(§5) The assays were performed as detailed in 10, 11.
(§6) The buffers used for fluorescence anisotropy were either phosphate buffer (40 mM sodium phosphate, 200 mM sodium chloride, 0.02 mg ml-1 bovine serum albumin, pH 7.50) or Tris buffer (50 mM Tris, 140 mM sodium chloride, pH 7.50). Phosphate buffer was used for all competition assays […]
(§7) Assays were run in 96 or 384 well Optiplates and were scanned using a Perkin Elmer EnVisionTM 2103 MultiLabel plate reader. Fluorescein labelled peptides used an excitation and emission wavelength of 480 (30) nm and 535 (40) nm respectively (dichroic mirror 505 nm) whilst BODIPY labelled peptides used an excitation and emission wavelength of 531 (25) nm and 595 (60) nm respectively (dichroic mirror 555 nm), […]
(§8) Plates were read after 1 h […]
(§9) respectively. Plates were read after 1 h. […]
(§10) Processing of fluorescence anisotropy data
(§11) Fluorescence anisotropy data was processed using Microsoft Excel to calculate intensity, anisotropy […]
(§12) b (λ(rmax − r) + r − rmin) r = anisotropy, I = total intensity, P = perpendicular intensity, S = parallel intensity, Lb = fraction ligand bound, λ = Ibound/Iunbound , G = 1= instrumental factor. […]
(§13) the calculation of IC50 and EC50) or to the Kd model for the extraction of Kd values:
(§14) Where for the logisitic model; y = r = anisotropy, xo = mid-point of the curve between the rmax and rmin […]
(§15) For the Kd model; y = Lb*[FL], K = Kd, [FL] = Concentration of fluorescent ligand.

Mcl-1/FITC-NOXA-B = target: T2, Mcl-1/FITC-NOXA-B (Homo sapiens, UniProt Q07820); experiment: Fluorescence anisotropy competition assay, inhibition of Mcl-1/FITC-NOXA-B interaction
T2 construct: His-SUMO (N, cleaved yes); made in house; host or cells: E. coli Rosetta 2
Method: as §1, §2, §3, §4, §5, §6, §7, §8, §9, §10, §11, §12, §13, §14, §15

Bcl-xL = target: T3, Bcl-xL (Homo sapiens, UniProt Q07817, DEL26-81); experiment: Surface plasmon resonance (SPR), peptides flowed over immobilised His-SUMO Bcl-xL; details: SPR Biacore 3000, His-SUMO Bcl-xL on Ni-NTA chip, PBS with 0.01 mg/mL BSA, 0.1% Tween 20, 1:1 model, average of at least 3 data sets; for Kd: read-out: Bcl-xL K d; for koff: read-out: Bcl-xL k off; for kon: read-out: Bcl-xL k on
T3 construct: pET28a His-SUMO Bcl-xL (1-198, missing 26-81); made in house; host or cells: E. coli Rosetta 2
Method: To investigate how the hydrocarbon constraint affects binding kinetics, we established a surface plasmon resonance (SPR) based assay. […] BID-WT and BID-MM were then flowed over the immobilised protein. […] These experiments were repeated for the BIM series of peptides.
SPR of BIM series of peptides
The binding kinetics and affinities were analysed by SPR (Biacore 3000). […]
immobilised on an Ni-NTA chip non-covalently in PBS with 0.01mg/ML BSA and 0.1% Tween 20 […]
(Running buffer). […] For the […]
the peptides were diluted into running buffer. Experiments were run at 40ul/min in running buffer.
20 minute dissociation period. The binding kinetic parameters were evaluated with BIA-Evaluation software (BIAcore 3000) in which all data sets were fit to a simple 1:1 (Langmuir) binding model. […]
(1 picture or pasted object on this page, not shown here)

T2 sequence (Q07820 172-327): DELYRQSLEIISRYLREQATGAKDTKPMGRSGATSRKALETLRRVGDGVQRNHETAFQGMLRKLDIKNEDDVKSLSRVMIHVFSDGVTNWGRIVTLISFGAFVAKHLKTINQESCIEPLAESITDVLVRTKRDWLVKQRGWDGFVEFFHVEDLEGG
T1 sequence (Q07817 with tags, fused parts or gaps DEL26-81): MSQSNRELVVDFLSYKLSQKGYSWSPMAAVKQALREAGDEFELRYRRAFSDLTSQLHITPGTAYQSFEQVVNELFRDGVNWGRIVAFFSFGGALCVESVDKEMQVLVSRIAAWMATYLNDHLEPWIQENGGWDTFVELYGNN
T3 sequence (Q07817 with tags, fused parts or gaps DEL26-81): as above

| IC50 (Bcl-xL/BODIPY-BAK) [nM] | IC50 (Mcl-1/FITC-NOXA-B) [nM] | Kd (Bcl-xL) [nM] | koff (Bcl-xL) [s⁻¹] | kon (Bcl-xL) [M⁻¹ s⁻¹] | Compound |
| --- | --- | --- | --- | --- | --- |
| 1440 ± 50 | 390 ± 80 | 57 ± 16 | 0.01 | 180000 | CCCC[C@H](NC(=O)[C@H](CO)NC(=O)[C@H](CC(=O)O)NC(=O)CNC(=O)[C@@H](NC(=O)[C@H](CCC(N)=O)NC(=O)[C@H](C)NC(=O)[C@H](CC(C)C)NC(=O)[C@H](Cc1c[nH]cn1)NC(=O)[C@H](CCCNC(=N)N)NC(=O)[C@H](C)NC(=O)[C@@H](NC(=O)[C@H](CC(N)=O)NC(=O)[C@H](CCCNC(=N)N)NC(=O)[C@@H](NC(=O)[C@@H](NC(=O)[C@H](CC(=O)O)NC(=O)[C@H](CCC(=O)O)NC(C)=O)[C@@H](C)CC)[C@@H](C)CC)[C@@H](C)CC)C(C)C)C(=O)N[C@@H](CC(=O)O)C(=O)N[C@@H](CCCNC(=N)N)C(=O)N[C@@H](CO)C(=O)N[C@H](C(=O)N[C@@H](Cc1c[nH]c2ccccc12)C(N)=O)[C@@H](C)CC [BID-WT, reference compound] (Ac-EDIIRNIARHLAQVGDS[Nle]DRSIW-NH2) |
| 620 ± 20 | 1600 ± 120 | 107 ± 29 | 0.003 | 31000 | CCCC[C@H](NC(=O)[C@@H]1CCC/C=C\CCC[C@H](NC(=O)[C@H](C)NC(=O)[C@H](CC(C)C)NC(=O)[C@H](Cc2c[nH]cn2)NC(=O)[C@H](CCCNC(=N)N)NC(=O)[C@H](C)NC(=O)[C@@H](NC(=O)[C@H](CC(N)=O)NC(=O)[C@H](CCCNC(=N)N)NC(=O)[C@@H](NC(=O)[C@@H](NC(=O)[C@H](CC(=O)O)NC(=O)[C@H](CCC(=O)O)NC(C)=O)[C@@H](C)CC)[C@@H](C)CC)[C@@H](C)CC)C(=O)N[C@@H](C(C)C)C(=O)NCC(=O)N[C@@H](CC(=O)O)C(=O)N1)C(=O)N[C@@H](CC(=O)O)C(=O)N[C@@H](CCCNC(=N)N)C(=O)N[C@@H](CO)C(=O)N[C@H](C(=O)N[C@@H](Cc1c[nH]c2ccccc12)C(N)=O)[C@@H](C)CC [BID-MM] |
| 1140 ± 40 | 800 ± 70 | 178 ± 52 | 0.003 | 17500 | CCCC[C@H](NC(=O)[C@]1(C)CCCC=CCCC[C@](C)(NC(=O)[C@H](C)NC(=O)[C@H](CC(C)C)NC(=O)[C@H](Cc2c[nH]cn2)NC(=O)[C@H](CCCNC(=N)N)NC(=O)[C@H](C)NC(=O)[C@@H](NC(=O)[C@H](CC(N)=O)NC(=O)[C@H](CCCNC(=N)N)NC(=O)[C@@H](NC(=O)[C@@H](NC(=O)[C@H](CC(=O)O)NC(=O)[C@H](CCC(=O)O)NC(C)=O)[C@@H](C)CC)[C@@H](C)CC)[C@@H](C)CC)C(=O)N[C@@H](C(C)C)C(=O)NCC(=O)N[C@@H](CC(=O)O)C(=O)N1)C(=O)N[C@@H](CC(=O)O)C(=O)N[C@@H](CCCNC(=N)N)C(=O)N[C@@H](CO)C(=O)N[C@H](C(=O)N[C@@H](Cc1c[nH]c2ccccc12)C(N)=O)[C@@H](C)CC [BID-DM] |
